# Experimental data from PMC5341858, “Molecular regulation of apoptotic machinery and lipid metabolism by mTORC1/mTORC2 dual inhibitors in preclinical models of HER2+/PIK3CAmut breast cancer” (Oncotarget, 2016).
# Tests used:
# [1] = target: T1, PAK2 (Homo sapiens, UniProt Q13177); experiment: KINOMEscan binding assay; settings: 1000 nM, percent control relative to vehicle
# T1 construct: purchased DiscoveRx KINOMEscan
# From the text: (§1) IC50 values were generated using Graphpad PRISM 5 software.
# [2] = target: T2, PCTK1 (Homo sapiens, UniProt Q00536); experiment: KINOMEscan binding assay; settings: 1000 nM, percent control relative to vehicle
# T2 construct: purchased DiscoveRx KINOMEscan
# T2 sequence (Q00536 whole entry): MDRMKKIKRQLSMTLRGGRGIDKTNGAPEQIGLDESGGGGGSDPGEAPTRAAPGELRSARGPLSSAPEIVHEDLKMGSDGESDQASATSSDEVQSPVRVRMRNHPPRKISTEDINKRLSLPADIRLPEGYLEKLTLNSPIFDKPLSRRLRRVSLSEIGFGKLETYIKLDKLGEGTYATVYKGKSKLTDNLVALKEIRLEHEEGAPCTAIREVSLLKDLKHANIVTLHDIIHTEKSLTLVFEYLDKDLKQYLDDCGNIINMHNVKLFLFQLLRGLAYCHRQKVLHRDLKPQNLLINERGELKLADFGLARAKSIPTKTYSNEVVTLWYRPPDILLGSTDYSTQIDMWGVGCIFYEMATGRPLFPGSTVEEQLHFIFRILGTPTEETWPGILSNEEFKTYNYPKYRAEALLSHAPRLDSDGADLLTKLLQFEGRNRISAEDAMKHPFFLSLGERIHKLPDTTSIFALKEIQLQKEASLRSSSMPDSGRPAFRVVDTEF
# From the text: as §1
# [3] = target: T3, TIE2 (Homo sapiens, UniProt Q02763); experiment: KINOMEscan binding assay; settings: 1000 nM, percent control relative to vehicle
# T3 construct: purchased DiscoveRx KINOMEscan
# From the text: as §1
# [4] = target: T4, PIM3 (Homo sapiens, UniProt Q86V86); experiment: KINOMEscan binding assay; settings: 1000 nM, percent control relative to vehicle
# T4 construct: purchased DiscoveRx KINOMEscan
# From the text: as §1
# [5] = target: T5, JNK3 (Homo sapiens, UniProt P53779); experiment: KINOMEscan binding assay; settings: 1000 nM, percent control relative to vehicle
# T5 construct: purchased DiscoveRx KINOMEscan
# T5 sequence (P53779 whole entry): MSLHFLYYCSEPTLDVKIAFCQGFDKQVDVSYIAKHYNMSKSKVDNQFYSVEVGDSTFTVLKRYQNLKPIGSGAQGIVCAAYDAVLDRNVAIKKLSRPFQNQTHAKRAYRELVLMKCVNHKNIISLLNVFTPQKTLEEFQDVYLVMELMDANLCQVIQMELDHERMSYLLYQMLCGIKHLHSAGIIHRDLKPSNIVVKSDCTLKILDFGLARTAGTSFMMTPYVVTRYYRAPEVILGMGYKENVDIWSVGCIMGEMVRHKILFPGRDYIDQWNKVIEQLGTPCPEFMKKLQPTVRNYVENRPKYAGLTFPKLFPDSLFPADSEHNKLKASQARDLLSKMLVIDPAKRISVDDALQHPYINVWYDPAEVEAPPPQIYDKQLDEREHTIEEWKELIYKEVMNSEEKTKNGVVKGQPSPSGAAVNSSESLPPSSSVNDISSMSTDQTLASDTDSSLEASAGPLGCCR
# From the text: as §1
# [6] = target: T6, RAF1 (Homo sapiens, UniProt P04049); experiment: KINOMEscan binding assay; settings: 1000 nM, percent control relative to vehicle
# T6 construct: purchased DiscoveRx KINOMEscan
# T6 sequence (P04049 whole entry): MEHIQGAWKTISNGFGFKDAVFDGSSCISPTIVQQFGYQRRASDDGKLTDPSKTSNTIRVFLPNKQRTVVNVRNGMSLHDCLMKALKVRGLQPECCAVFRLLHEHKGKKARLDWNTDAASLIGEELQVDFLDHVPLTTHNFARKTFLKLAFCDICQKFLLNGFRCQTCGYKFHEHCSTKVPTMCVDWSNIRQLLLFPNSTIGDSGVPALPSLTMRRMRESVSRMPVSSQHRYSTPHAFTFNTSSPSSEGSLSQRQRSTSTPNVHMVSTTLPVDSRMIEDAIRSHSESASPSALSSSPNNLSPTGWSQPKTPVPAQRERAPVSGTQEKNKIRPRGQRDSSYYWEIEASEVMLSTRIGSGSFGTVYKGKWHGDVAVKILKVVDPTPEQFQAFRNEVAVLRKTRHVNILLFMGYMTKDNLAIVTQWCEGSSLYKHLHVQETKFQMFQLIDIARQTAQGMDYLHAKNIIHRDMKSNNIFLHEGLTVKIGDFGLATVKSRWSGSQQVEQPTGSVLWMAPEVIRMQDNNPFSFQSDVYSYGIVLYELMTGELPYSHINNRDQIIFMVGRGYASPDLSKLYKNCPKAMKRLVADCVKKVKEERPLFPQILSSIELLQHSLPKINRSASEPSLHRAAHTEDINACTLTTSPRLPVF
# From the text: as §1
# [7] = target: T7, EPHA2 (Homo sapiens, UniProt P29317); experiment: KINOMEscan binding assay; settings: 1000 nM, percent control relative to vehicle
# T7 construct: purchased DiscoveRx KINOMEscan
# T7 sequence (P29317 24-976): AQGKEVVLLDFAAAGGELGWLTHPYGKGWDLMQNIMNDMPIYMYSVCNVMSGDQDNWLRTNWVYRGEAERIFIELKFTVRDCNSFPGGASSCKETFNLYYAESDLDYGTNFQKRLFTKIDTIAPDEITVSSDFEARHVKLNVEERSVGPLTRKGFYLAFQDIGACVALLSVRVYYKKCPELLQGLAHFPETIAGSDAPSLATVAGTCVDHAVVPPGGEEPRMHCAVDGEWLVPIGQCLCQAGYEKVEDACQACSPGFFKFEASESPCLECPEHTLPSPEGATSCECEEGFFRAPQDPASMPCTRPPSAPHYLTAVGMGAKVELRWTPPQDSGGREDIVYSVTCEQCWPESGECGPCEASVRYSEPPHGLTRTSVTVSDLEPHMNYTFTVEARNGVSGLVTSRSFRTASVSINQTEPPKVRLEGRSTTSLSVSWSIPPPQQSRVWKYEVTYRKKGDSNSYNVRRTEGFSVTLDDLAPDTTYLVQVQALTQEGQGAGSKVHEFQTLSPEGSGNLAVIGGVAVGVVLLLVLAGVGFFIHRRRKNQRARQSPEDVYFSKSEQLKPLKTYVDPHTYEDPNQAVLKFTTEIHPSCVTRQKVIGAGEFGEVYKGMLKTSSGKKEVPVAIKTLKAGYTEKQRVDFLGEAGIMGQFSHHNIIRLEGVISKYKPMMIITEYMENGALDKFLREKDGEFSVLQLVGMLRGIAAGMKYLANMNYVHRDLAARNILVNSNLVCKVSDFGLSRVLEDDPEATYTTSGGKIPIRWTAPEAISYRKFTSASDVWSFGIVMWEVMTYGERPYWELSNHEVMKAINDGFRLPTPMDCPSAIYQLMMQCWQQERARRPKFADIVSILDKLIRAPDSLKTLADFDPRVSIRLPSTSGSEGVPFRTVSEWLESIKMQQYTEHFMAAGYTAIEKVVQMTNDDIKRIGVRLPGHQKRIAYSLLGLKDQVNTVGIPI
# From the text: as §1
# [8] = target: T8, IKK-beta (Homo sapiens, UniProt O14920); experiment: KINOMEscan binding assay; settings: 1000 nM, percent control relative to vehicle
# T8 construct: purchased DiscoveRx KINOMEscan
# From the text: as §1
# [9] = target: T9, ABL1-nonphosphorylated (Homo sapiens, UniProt P00519); experiment: KINOMEscan binding assay; settings: 1000 nM, percent control relative to vehicle
# T9 construct: purchased DiscoveRx KINOMEscan
# T9 sequence (P00519 whole entry): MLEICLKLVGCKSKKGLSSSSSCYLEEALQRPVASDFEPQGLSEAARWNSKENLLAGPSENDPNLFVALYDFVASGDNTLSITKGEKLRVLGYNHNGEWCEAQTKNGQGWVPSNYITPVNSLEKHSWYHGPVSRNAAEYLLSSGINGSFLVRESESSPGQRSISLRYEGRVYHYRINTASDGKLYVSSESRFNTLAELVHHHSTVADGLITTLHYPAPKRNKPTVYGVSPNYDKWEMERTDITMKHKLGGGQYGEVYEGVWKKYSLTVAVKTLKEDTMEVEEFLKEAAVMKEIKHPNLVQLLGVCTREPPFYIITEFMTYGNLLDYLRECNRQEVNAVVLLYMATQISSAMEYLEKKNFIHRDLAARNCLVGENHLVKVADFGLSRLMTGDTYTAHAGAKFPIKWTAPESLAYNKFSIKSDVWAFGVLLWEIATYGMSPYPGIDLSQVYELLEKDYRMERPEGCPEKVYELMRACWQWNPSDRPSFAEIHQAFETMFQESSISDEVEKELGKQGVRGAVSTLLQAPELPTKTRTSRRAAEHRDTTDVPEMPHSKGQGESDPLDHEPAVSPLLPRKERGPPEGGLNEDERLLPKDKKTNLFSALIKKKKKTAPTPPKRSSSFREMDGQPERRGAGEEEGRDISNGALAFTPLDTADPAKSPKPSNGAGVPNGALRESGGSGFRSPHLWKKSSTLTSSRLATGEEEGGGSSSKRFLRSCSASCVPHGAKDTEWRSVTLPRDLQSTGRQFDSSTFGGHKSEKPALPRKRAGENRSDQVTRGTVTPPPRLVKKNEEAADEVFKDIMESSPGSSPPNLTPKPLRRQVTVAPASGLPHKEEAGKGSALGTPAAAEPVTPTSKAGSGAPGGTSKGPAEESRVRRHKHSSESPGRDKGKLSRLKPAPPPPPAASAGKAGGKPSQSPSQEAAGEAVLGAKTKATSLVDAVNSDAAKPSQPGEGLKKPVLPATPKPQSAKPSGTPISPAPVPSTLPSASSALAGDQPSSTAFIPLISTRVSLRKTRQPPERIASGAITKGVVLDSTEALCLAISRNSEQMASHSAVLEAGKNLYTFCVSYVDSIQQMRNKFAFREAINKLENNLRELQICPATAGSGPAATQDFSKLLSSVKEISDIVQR
# From the text: as §1
# [10] = target: T10, CDK3 (Homo sapiens, UniProt Q00526); experiment: KINOMEscan binding assay; settings: 1000 nM, percent control relative to vehicle
# T10 construct: purchased DiscoveRx KINOMEscan
# T10 sequence (Q00526 whole entry): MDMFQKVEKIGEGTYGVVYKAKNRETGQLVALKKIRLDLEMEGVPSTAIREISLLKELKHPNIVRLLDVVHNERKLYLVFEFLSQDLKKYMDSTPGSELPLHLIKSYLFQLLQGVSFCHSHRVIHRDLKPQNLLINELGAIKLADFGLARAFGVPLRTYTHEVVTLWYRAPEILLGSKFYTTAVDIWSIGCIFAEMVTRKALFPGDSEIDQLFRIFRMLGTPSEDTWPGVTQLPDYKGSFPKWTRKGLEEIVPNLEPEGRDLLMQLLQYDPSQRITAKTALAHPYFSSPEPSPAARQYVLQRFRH
# From the text: as §1
# [11] = system: MDA-MB-453 and 786-O tumors; experiment: In vivo antitumor efficacy, oral once daily
# Protocol: (§2) Animal studies were performed under protocols approved by Institutional Animal Care and Use Committee (IACUC) of Fudan University. Balbc female nude mice bearing MDA-MB-453, HCC1806 or 786-O tumors were staged at initial tumor volume of 150-200 mm^3 and randomized into treatment groups (n=/>8). […] Lapatinib and Sunitinib were formulated in 0.5% hydroxypropyl methyl cellulose (HPMC)-0.2% tween-80 as homogeneous suspension. All test agents were prepared twice weekly. Mice were dosed orally once daily (qd). Tumor growth inhibition rate (TGI) was calculated: TGI=[1-(Vt-Vi)/(Vc-Vi)]×100, where Vt: tumor volume of drug treated group, Vc: tumor volume of vehicle control group, Vi: initial tumor volume at staging. For biomarker studies, frozen tumors were made lysates and immunoblotted as previously described. For detecting apoptosis, tumors were excised, fixed in 4% formalin for 24 h and embedded in paraffin. Slides were processed for terminal deoxynuleotidyl transferase dUTP nick end labeling (TUNEL) using an assay kit (KeyGen Biotech, KGA7061) following vendor's instruction manual. For IHC staining, tumor slides described above were deparaffinized, rehydrated and permeablized with 1% Triton X-100. Antigens were retrieved with Tris/EDTA (pH 9.0) under microwave heating for 20 min. The slides were blocked in Tris buffered saline with 5% BSA-0.3 M glycine and reacted with anti-CPT1A (Proteintech #15184-1-AP) or anti-P-ACL S455 (Abcam #59297) and detected with peroxidase-conjugated secondary antibody (Jackson # 111-035-003). Images were acquired using Leica microscope (model DMI4000D). Staining levels were analyzed on the basis of mean optical density quantified by software image pro plus 6.0.
# [12] = system: P-S6 and P-AKT in MDA-MB-453 tumors; experiment: mTOR biomarkers in tumor tissue (immunoblot); assay type: in vivo, mice
# Protocol: as §2, with “Slides were processed for terminal deoxynuleotidyl transferase dUTP nick end labeling (TUNEL) using an assay kit (KeyGen Biotech, KGA7061) following vendor's instruction manual. For IHC staining, tumor slides described above were deparaffinized, rehydrated and permeablized with 1% Triton X-100. Antigens were retrieved with Tris/EDTA (pH 9.0) under microwave heating for 20 min.” left out, “Images were acquired using Leica microscope (model DMI4000D).” left out
# [13] = system: mTORC1 substrates P-S6K1(T389), P-S6(S235/6), P-4EBP1(T70) and mTORC2 substrate P-AKT(S473) in 786-O, U87MG and MDA-MB-453 cells; experiment: Immunoblotting of mTORC1 and mTORC2 biomarkers in tumor cells; assay type: cell-based
# Protocol: For standard assay of inhibitor effects on cellular biomarker expression, cells were plated at pre-determined density in 6-well or 12-well culture plates for overnight, treated with inhibitors for the indicated doses and times. Cells were lysed in NuPAGE-LDS lysis buffer (Invitrogen) and immunoblotted with antibodies including P-S6K1(T389), S6, P-4EBP1(T70), 4EBP1, P-GSK3(S21/9), GSK3, cyclin D1, Raptor, Rictor, P-ACL(S455), ACL, cleaved-PARP (Cell Signaling Technology); P-S6(S235/6), AKT(S473), AKT, Bim (Abcam-Epitomics); c-Myc (Santa Cruz); Mcl-1 (Affinity); CPT1A (Proteintech); β-actin and GAPDH (Bioworld).
# [14] = system: MDA-MB-453 cells; experiment: Total cellular acetyl-CoA level; assay type: cell-based; settings: 24 h
# Protocol: (§3) Cellular glucose-to-lipid conversion was measured as described. Briefly, cells were pretreated with inhibitors for 2 h, incubated for 2 h in medium containing 2 μCi/mL D-[1-14C] glucose (PerkinElmer, NEC043X001MC). Total lipids were extracted twice with 300 μL hexane:isopropanol (3:2; vol:vol). Cell debris was carefully removed by centrifugation at 14,000 rpm for 5 min using a microcentrifuge. Radioactive lipids were dried, redissolved with 100 μL of chloroform and determined by liquid scintillation counting. A duplicate assay plate without radioactive glucose label was used to count the number of cells per treatment. Glucose to total lipid conversion rate is the radioactive counts from the extracted lipid normalized by the number of cells per hour of ^14C-glucose incubation. For acetyl-CoA assay, cells grown in 96-well plates were washed and lysed in 40 μL/well using lysis buffer. Cell lysates were transferred to V-bottom plates, cleared by centrifugation. 30 μL of the cleared cell lysates were subjected to acetyl-CoA measurement using an acetyl-CoA assay kit (Sigma, MAK-039) following manufacturer's assay manual. Duplicate assay plates were used to count the number of cells per treatment for normalization in determining cellular acetyl-CoA levels.
# [15] = system: HER2-/PIK3CAwt HCC1806 breast tumor model; experiment: In vivo antitumor efficacy, oral once daily; set-up: species or system mice; settings: HCC1806 tumors; even at the highest 40 mg/kg oral qd
# Protocol: as §2, with “Slides were processed for terminal deoxynuleotidyl transferase dUTP nick end labeling (TUNEL) using an assay kit (KeyGen Biotech, KGA7061) following vendor's instruction manual. For IHC staining, tumor slides described above were deparaffinized, rehydrated and permeablized with 1% Triton X-100. Antigens were retrieved with Tris/EDTA (pH 9.0) under microwave heating for 20 min.” left out, “Images were acquired using Leica microscope (model DMI4000D).” left out
# [16] = system: MDA-MB-453 cells; experiment: Glucose-to-lipid conversion (de novo lipid synthesis); assay type: cell-based; settings: 4 h, saturating dose (5 μM MTI-31, 1 μM rapamycin)
# Protocol: as §3
# [17] = system: MDA-MB-231 cells; experiment: as above; assay type: cell-based; settings: similar treatment, 4 h saturating dose
# Protocol: as §3
# T1 sequence (Q13177 whole entry): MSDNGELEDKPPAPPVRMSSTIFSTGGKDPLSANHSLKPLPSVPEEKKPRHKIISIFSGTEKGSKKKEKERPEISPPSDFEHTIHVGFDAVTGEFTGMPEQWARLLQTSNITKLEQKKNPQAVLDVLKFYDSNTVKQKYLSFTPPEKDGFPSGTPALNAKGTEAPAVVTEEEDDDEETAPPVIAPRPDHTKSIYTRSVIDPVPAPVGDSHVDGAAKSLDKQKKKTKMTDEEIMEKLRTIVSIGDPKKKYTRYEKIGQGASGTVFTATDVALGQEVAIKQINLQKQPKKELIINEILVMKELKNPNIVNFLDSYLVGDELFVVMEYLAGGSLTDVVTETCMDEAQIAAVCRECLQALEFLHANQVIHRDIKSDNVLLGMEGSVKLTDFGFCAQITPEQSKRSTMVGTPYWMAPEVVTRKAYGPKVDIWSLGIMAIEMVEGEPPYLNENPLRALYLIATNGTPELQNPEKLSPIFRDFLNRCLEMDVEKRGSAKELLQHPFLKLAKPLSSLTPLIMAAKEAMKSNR
structure (smiles),measurement,setting,value
CNC(=O)c1cccc(-c2ccc3c(N4C5CCC4COC5)nc(N4CCOC[C@@H]4C)nc3n2)c1 [MTI-31],% Control,[1],94%
same,% Control,[2],87%
same,% Control,[3],100%
same,% Control,[4],100%
same,% Control,[5],96%
same,% Control,[6],82%
same,% Control,[7],98%
same,% Control,[8],69%
same,% Control,[9],52%
same,% Control,[10],99%
same,tumor growth inhibition (TGI) at MED,"[11]; 5 mg/kg oral qd, p<0.01",> 50%
same,body weight loss at MTD,"[11]; 40 mg/kg oral qd, without mortality",7-15%
same,"tumor response, large size tumors","[11]; nude mice bearing large size MDA-MB-453 tumors, 40 mg/kg qd",rapid and dramatic tumor regression
same,minimum efficacious dose (MED),"[11]; oral, qd, nude mice, MDA-MB-453 and 786-O models",5 mg/kg
same,maximum tolerated dose (MTD),"[11]; oral, qd, nude mice, without mortality",40 mg/kg
same,P-S6 and P-AKT levels in tumor tissue,[12]; 5 mg/kg oral qd,significantly reduced
same,P-S6 and P-AKT levels in tumor tissue,[12]; 10 mg/kg oral qd,nearly complete suppression
same,IC50,"[13]; read-out: concentration achieving 50% inhibition of mTORC1 and mTORC2 substrates, 786-O, U87MG and MDA-MB-453 cells, 6 h treatment",≤ 120 nM
same,EC50,"[13]; several relevant tumor models (cells), read-out: EC50, inhibition of mTORC1/mTORC2 signaling",≤ 120 nM
same,reduction in acetyl-CoA,[14],67%
same,antitumor efficacy,[15],limited efficacy
same,suppression of de novo lipid synthesis (14C-glucose-to-lipid conversion rate),[16],70%
same,effect on de novo lipid synthesis,[17],did not significantly reduce lipid synthesis
